Here are results for two compounds from patent US7759355B2, “Adenosine A2A receptor antagonists for treating restless legs syndrome or nocturnal myoclonus” (Kyowa Hakko Kirin Co., Ltd., priority 2002, dated 2010).

The test system of series [1] is patients with moderate to severe RLS. Description: Human clinical trial, RLS treatment with an A2A antagonist (IRLSRS total score and total PLMS index by polysomnography). Type of series: in vivo. As to conditions: 80 mg once a day for 6 weeks. How it is done:
In order to assess the efficacy of a representative A2A antagonist in treating RLS, a clinical trial was initiated and conducted in accordance with standard procedures. Briefly, the total score in International RLS Rating Scale (IRLSRS) and total PLMS index (polysomnography; PLMS index represents the number of periodic limb movements per hour of sleep) of the patients were measured to evaluate the efficacy of Compound A in RLS [Understanding and Diagnosing Restless Legs Syndrome (2003), Restless Legs Syndrome Foundation, 819 Second Street, SW Rochester, Minn. 55902].
Scoring for IRLSRS was made according to the following Instructions for Examiner (Maximum IRLSRS total score is 40).
The Examiner was instructed to have the patient rate his/her symptoms for the following ten questions. The patient and not the examiner made the ratings, but the examiner was available to clarify any misunderstandings the patient may have had about the questions. Either the examiner or the patient marked the answers on the form. In questions 1, 2, 4, 5, 6, 9 and 10, the following scoring was used: (4) Very severe; (3) Severe; (2) Moderate; (1) Mild; and (0) None.
Patients diagnosed with idiopathic RLS were withheld from the medication from the time of screening until the end of treatment. After tapering all RLS medications, patients were screened for eligibility. At Week −2, patients were admitted to the clinic on the night preceding the visit day to be adapted to the sleep environment of the laboratory. After screening, IRLSRS total score and total PLMS index of the patients were measured on Day −1 in order to establish a baseline and to assess the range of RLS fluctuation. Only patients with moderate to severe RLS (15 and more IRLSRS total scores) were enrolled in the study.
Treatment with Compound A (80 mg, once a day) began on the day following Day −1 visit and continued for the next 6 weeks. The last dose of Compound A was taken on the day of Week 6 visit. At Week 8, patients received RLS assessments (IRLSRS total score and total PLMS index). The inhibition ratio for each score was calculated by the following equation. Inhibition Ratio(%)={[(Score at Day−1)−(Score at Week 8)]/(Score at Day−1)}×100

Series [2] concerns patients with advanced Parkinson's disease; animal models. The note with it: animal models and early Phase II studies in patients with advanced Parkinson's disease; cited from earlier work.
A further series deals with parkinsonian monkeys. As to conditions: Neurology, 52, 1673-1677 (1999); cited from earlier work.
Setting [3] is: Week 8 vs Day-1 baseline, N = 4.

`CCn1c(=O)c2c(nc(/C=C/c3ccc(OC)c(OC)c3)n2C)n(CC)c1=O` [Compound A, (E)-8-(3,4-dimethoxystyryl)-1,3-diethyl-7-methylxanthine]: in series [1] (setting [3]), the “IRLSRS Total Score, Inhibition Ratio” value is recorded as 29.2% and the “Total PLMS Index, Inhibition Ratio” value is reported as 45.2%. The “IRLSRS Total Score, Week 8, mean (SD)” value in series [1] (assessed at Week 8, N = 4, baseline (Day-1) 32.5 (4.39), maximum score 40) is given as 23 (8.04). Besides, in series [1] (assessed at Week 8, N = 4, baseline (Day-1) 45 (15.41), periodic limb movements per hour of sleep), the “Total PLMS Index, Week 8, mean (SD)” value is 24.67 (23.89). The “Effect on RLS symptoms” value in series [1] (patients with moderate to severe RLS) was “relief of RLS symptoms and improvement”. Besides, the “Amelioration of Parkinsonian symptoms” value in series [2] is “efficacious in ameliorating Parkinsonian symptoms”.

Turning to `CCn1c(=O)c2c(nc(/C=C/c3ccc(OC)c(OC)c3)n2C)n(CC)c1=O` [KW-6002], in the series on parkinsonian monkeys, the Hyperactivity and dyskinesia entry was “without producing hyperactivity and provoking dyskinesia”.
